Earlier results, collected in patent US20050171374A1, “Preparation of levulinic acid esters from alpha-angelica lactone and olefins; use of ester compositions as fuel additives” (priority 2004, published 2005).
Structures can show the parent of a compound that is named as a salt.

How the values were obtained:
[1] = for Lower Heating Value [2]: reference [2] Walters, molar group contributions; for Lower Heating Value [1]: reference [1] DIPPR, cells marked [3] from DOE/EIA report
[2] = reference [1] DIPPR
[3] = reference [1] DIPPR; remark: listed apart in the source

COC(=O)CCC(C)=O [Methyl Levulinate]
Lower Heating Value [2] [1]: 10773 Btu/lb

COC(C)(C)C [MTBE, methyl tertiary-butyl ether, reference compound]
Vapor Press. (100° F.) [1] [2]: 55 KPa
Lower Heating Value [1] [1]: 15100[3] Btu/lb
Lower Heating Value [2] [1]: 16578 Btu/lb
Flash Point [1] [3]: −28.15 °C

CC(=O)CCC(=O)OCCC(C)C [Isoamyl Levulinate]
Lower Heating Value [2] [1]: 13605 Btu/lb

CCC(C)OC(=O)CCC(C)=O (stereo not shown) [Sec-Butyl Levulinate]
Lower Heating Value [2] [1]: 11748 Btu/lb

CC(=O)CCC(=O)OC(C)(C)C [Tert-Butyl Levulinate]
Lower Heating Value [2] [1]: 12010 Btu/lb

CC(C)OC=O [Isopropyl Formate]
Lower Heating Value [2] [1]: 12304 Btu/lb
Flash Point [1] [3]: −6 °C

CCCCCOC=O [Amyl Formate Ester]
Vapor Press. (100° F.) [1] [2]: 2.5 KPa
Lower Heating Value [1] [1]: 12274 Btu/lb
Lower Heating Value [2] [1]: 13905 Btu/lb
Flash Point [1] [3]: 26.85 °C

CCCOC=O [N-Propyl Formate]
Vapor Press. (100° F.) [1] [2]: 19.9 KPa
Lower Heating Value [1] [1]: 9964 Btu/lb
Lower Heating Value [2] [1]: 11792 Btu/lb
Flash Point [1] [3]: −3.15 °C

CC(C)COC=O [Isobutyl Formate]
Vapor Press. (100° F.) [1] [2]: 10.2 KPa
Lower Heating Value [1] [1]: 11377 Btu/lb
Lower Heating Value [2] [1]: 12797 Btu/lb
Flash Point [1] [3]: 3.85 °C

COC=O [Methyl Formate]
Vapor Press. (100° F.) [1] [2]: 126.2 KPa
Lower Heating Value [1] [1]: 6393 Btu/lb
Lower Heating Value [2] [1]: 7711 Btu/lb
Flash Point [1] [3]: −19.15 °C

CC(=O)CCC(=O)OC(C)C [Isopropyl Levulinate]
Lower Heating Value [2] [1]: 10969 Btu/lb

CCC(C)OC=O (stereo not shown) [Sec-Butyl Formate]
Vapor Press. (100° F.) [1] [2]: 12.1 KPa
Lower Heating Value [2] [1]: 10617 Btu/lb
Flash Point [1] [3]: 0.85 °C

CCCOC(=O)CCC(C)=O [N-Propyl Levulinate]
Lower Heating Value [2] [1]: 13912 Btu/lb

CO [Methanol, reference compound]
Vapor Press. (100° F.) [1] [2]: 32 KPa
Lower Heating Value [1] [1]: 8570 Btu/lb
Lower Heating Value [2] [1]: 8950 Btu/lb
Flash Point [1] [3]: 10.85 °C

CC(=O)CCC(=O)OCC(C)C [Isobutyl Levulinate]
Lower Heating Value [2] [1]: 13041 Btu/lb

CCOC=O [Ethyl Formate]
Vapor Press. (100° F.) [1] [2]: 55 KPa
Lower Heating Value [1] [1]: 8751 Btu/lb
Lower Heating Value [2] [1]: 10139 Btu/lb
Flash Point [1] [3]: −20 °C

CCCCOC=O [N-Butyl Formate]
Vapor Press. (100° F.) [1] [2]: 7.4 KPa
Lower Heating Value [1] [1]: 11415 Btu/lb
Lower Heating Value [2] [1]: 15175 Btu/lb
Flash Point [1] [3]: 18 °C

CC(C)(C)OC=O [Tert-Butyl Formate]
Vapor Press. (100° F.) [1] [2]: 19.8 KPa
Lower Heating Value [1] [1]: 11277 Btu/lb
Lower Heating Value [2] [1]: 12873 Btu/lb
Flash Point [1] [3]: −9 °C

CCCCCOC(=O)CCC(C)=O [Amyl Levulinate]
Lower Heating Value [2] [1]: 14909 Btu/lb

CCCCOC(=O)CCC(C)=O [N-Butyl Levulinate]
Lower Heating Value [2] [1]: 14451 Btu/lb

CCOC(=O)CCC(C)=O [Ethyl Levulinate]
Lower Heating Value [2] [1]: 11722 Btu/lb

CCO [Ethanol, reference compound]
Vapor Press. (100° F.) [1] [2]: 16 KPa
Lower Heating Value [1] [1]: 11500[3] Btu/lb
Lower Heating Value [2] [1]: 12477 Btu/lb
Flash Point [1] [3]: 12.85 °C
